From PMC7782499, “Progerinin, an optimized progerin-lamin A binding inhibitor, ameliorates premature senescence phenotypes of Hutchinson-Gilford progeria syndrome” (Communications Biology, 2021)
Where two headings read alike, the source gives them in different places.

Experiment: In vivo pharmacokinetic (PK) analysis, intravenous and oral
Parameters: species or system rats
Conditions: for bioavailability: read-out: Bioavailability (BA)
Protocol: A. In vivo pharmacokinetic (PK) analysis of JH010 (performed in rats). […] B Effect of SLC-D011 on human ERG (hERG). […] C In vivo pharmacokinetic analysis of SLD-D011. […] HEK293 cells transiently transfected with GFP-PG vectors were treated with SLC-D011 for 24 hr (n = 3 independent experiment; two-tailed Student’s t test). […] “Con” means dimethyl sulfoxide (DMSO)-treated control.
At pre-set time-points, blood concentration of JH4 was determined by LC-MS/MS analysis[22],[23]. Other chemicals were also tested using similar protocol. In vitro ADME studies (plasma protein binding, CYP inhibition, microsomal stability, plasma stability, and hERG inhibition) were performed by New Drug Development Center (Daegu, Korea) using standard protocols[24],[25].

Structure (SMILES)	AUCINF_obs, Mean (intravenous 5mg/kg (n=3))	AUCall, Mean (intravenous 5mg/kg (n=3))	MRTINF_obs, Mean (intravenous 5mg/kg (n=3))	T1/2, Mean (intravenous 5mg/kg (n=3))	Vss_obs, Mean (intravenous 5mg/kg (n=3))	Plasma concentration, Mean (intravenous 5mg/kg (n=3), 0.08 hr)	Plasma concentration, Mean (intravenous 5mg/kg (n=3), 0.25 hr)	Plasma concentration, Mean (intravenous 5mg/kg (n=3), 0.5 hr)	Half-life after in vivo oral administration (oral 10 mg/kg)	bioavailability (rat, blood, oral, 10 mg/kg)	Cmax (rat, blood, oral 5mg/kg (n=3))	Tmax (rat, blood, oral 5mg/kg (n=3))	AUC (rat, blood, oral 5mg/kg (n=3), read-out: AUCall, Mean)	bioavailability (rat, blood, oral 5 mg/kg)
CC1(C)Oc2cc3oc(=O)ccc3cc2CC1OC(=O)C=Cc1cccnc1 (centres unmarked) [JH4]	1.4 ng·h/mL	1.3 ng·h/mL	0.2 h	6 min	673.9 L/kg	4.7 ng/mL	1.5 ng/mL	0.6 ng/mL	extremely short					
CC1(C)Oc2cc3oc(=O)ccc3cc2C[C@@H]1OC/C=C/c1ccccc1 [SLC-D011]										58.1%	29.7 ng/mL	2.7 h	144 ng·h/mL	65.9%
